Experimental data published in patent US7342011B2, “Rifamycin analogs and uses thereof” (priority 2003, dated 2008).
≈ marks a conversion by molar mass, not a printed value.

Assays:
Type in all cases: cell-based
E. faecalis = assay: MIC assay, E. faecalis
H. flu = assay: MIC assay, H. flu
S. pneumo. = assay: MIC assay, S. pneumo.
E. coli = assay: MIC assay, E. coli
S. aureus = assay: MIC assay, S. aureus

CO[C@H]1/C=C/O[C@@]2(C)Oc3c(C)c(O)c4c(=O)c(c5oc6cc(N7C[C@@H]8CCCN(C)[C@@H]8C7)cc(O)c6nc-5c4c3C2=O)NC(=O)/C(C)=C\C=C\[C@H](C)[C@H](O)[C@@H](C)[C@@H](O)[C@@H](C)[C@H](O)[C@@H]1C [Compound 59, 25-O-deacetyl-3′-hydroxy-5′-[1-methyl-(4aS,7aS)-octahydro-6H-pyrrolo[3,4-b]pyridin-6-yl]benzoxazinorifamycin]
MIC (μg/mL) E. faecalis (E. faecalis): 0.06 µg/mL (≈ 0.0669 µM)
MIC (μg/mL) H. flu (H. flu): 0.12 µg/mL (≈ 0.134 µM)
MIC (μg/mL) S. pneumo. (S. pneumo.): 0.001 µg/mL (≈ 0.00111 µM)
MIC (μg/mL) E. coli (E. coli): 4 µg/mL (≈ 4.46 µM)
MIC (μg/mL) S. aureus (S. aureus): 0.004 µg/mL (≈ 0.00446 µM)

CO[C@H]1/C=C/O[C@@]2(C)Oc3c(C)c(O)c4c(=O)c(c5oc6cc(N7CCC(CCO)CC7)cc(O)c6nc-5c4c3C2=O)NC(=O)/C(C)=C\C=C\[C@H](C)[C@H](O)[C@@H](C)[C@@H](O)[C@@H](C)[C@H](OC(C)=O)[C@@H]1C [Compound 61, 3′-hydroxy-5′-[4-(2-hydroxyethyl)-1-piperidinyl]benzoxazinorifamycin]
MIC (μg/mL) E. faecalis (E. faecalis): 1 µg/mL (≈ 1.08 µM)
MIC (μg/mL) H. flu (H. flu): 0.25 µg/mL (≈ 0.269 µM)
MIC (μg/mL) S. pneumo. (S. pneumo.): 0.00012 µg/mL (≈ 0.000129 µM)
MIC (μg/mL) E. coli (E. coli): >8 µg/mL
MIC (μg/mL) S. aureus (S. aureus): 0.004 µg/mL (≈ 0.00431 µM)

CO[C@H]1/C=C/O[C@@]2(C)Oc3c(C)c(O)c4c(=O)c(c5sc6cc(N7C[C@@H](C)N[C@@H](C)C7)ccc6nc-5c4c3C2=O)NC(=O)/C(C)=C\C=C\[C@H](C)[C@H](O)[C@@H](C)[C@@H](O)[C@@H](C)[C@H](OC(C)=O)[C@@H]1C [Compound 64, 5′-[(3R,5S)-3,5-dimethyl-1-piperazinyl]benzthiazinorifamycin]
MIC (μg/mL) E. faecalis (E. faecalis): 0.12 µg/mL (≈ 0.131 µM)
MIC (μg/mL) H. flu (H. flu): 0.25 µg/mL (≈ 0.274 µM)
MIC (μg/mL) S. pneumo. (S. pneumo.): 0.00012 µg/mL (≈ 0.000131 µM)
MIC (μg/mL) E. coli (E. coli): 4 µg/mL (≈ 4.38 µM)
MIC (μg/mL) S. aureus (S. aureus): 0.004 µg/mL (≈ 0.00438 µM)

CO[C@H]1/C=C/O[C@@]2(C)Oc3c(C)c(O)c4c(=O)c(c5oc6cc(N7CCC(CCO)CC7)cc(O)c6nc-5c4c3C2=O)NC(=O)/C(C)=C\C=C\[C@H](C)[C@H](O)[C@@H](C)[C@@H](O)[C@@H](C)[C@H](O)[C@@H]1C [Compound 66, 25-O-deacetyl-3′-hydroxy-5′-[4-(2-hydroxyethyl)-1-piperidinyl]benzoxazinorifamycin]
MIC (μg/mL) E. faecalis (E. faecalis): 0.12 µg/mL (≈ 0.135 µM)
MIC (μg/mL) H. flu (H. flu): 0.12 µg/mL (≈ 0.135 µM)
MIC (μg/mL) S. pneumo. (S. pneumo.): 0.0005 µg/mL (≈ 0.000564 µM)
MIC (μg/mL) E. coli (E. coli): 4 µg/mL (≈ 4.51 µM)
MIC (μg/mL) S. aureus (S. aureus): 0.004 µg/mL (≈ 0.00451 µM)

CO[C@H]1/C=C/O[C@@]2(C)Oc3c(C)c(O)c4c(=O)c(c5sc6cc(N7C[C@@H](C)N(CC8CC8)C[C@@H]7C)ccc6nc-5c4c3C2=O)NC(=O)/C(C)=C\C=C\[C@H](C)[C@H](O)[C@@H](C)[C@@H](O)[C@@H](C)[C@H](OC(C)=O)[C@@H]1C [Compound 68, 5′-[(2S,5R)-4-(cyclopropylmethyl)-2,5-dimethylpiperazinyl]benzthiazinorifamycin]
MIC (μg/mL) E. faecalis (E. faecalis): 2 µg/mL (≈ 2.07 µM)
MIC (μg/mL) H. flu (H. flu): 0.5 µg/mL (≈ 0.517 µM)
MIC (μg/mL) S. pneumo. (S. pneumo.): 0.0005 µg/mL (≈ 0.000517 µM)
MIC (μg/mL) E. coli (E. coli): >8 µg/mL
MIC (μg/mL) S. aureus (S. aureus): 0.06 µg/mL (≈ 0.062 µM)

CO[C@H]1/C=C/O[C@@]2(C)Oc3c(C)c(O)c4c(=O)c(c5sc6cc(N7CCC(N(C)C)CC7)ccc6nc-5c4c3C2=O)NC(=O)/C(C)=C\C=C\[C@H](C)[C@H](O)[C@@H](C)[C@@H](O)[C@@H](C)[C@H](OC(C)=O)[C@@H]1C [Compound 69, 5′-[4-N,N-dimethylamino-1-piperidinyl]benzthiazinorifamycin]
MIC (μg/mL) E. faecalis (E. faecalis): 0.5 µg/mL (≈ 0.539 µM)
MIC (μg/mL) H. flu (H. flu): 0.5 µg/mL (≈ 0.539 µM)
MIC (μg/mL) S. pneumo. (S. pneumo.): 0.00025 µg/mL (≈ 0.00027 µM)
MIC (μg/mL) E. coli (E. coli): 4 µg/mL (≈ 4.31 µM)
MIC (μg/mL) S. aureus (S. aureus): 0.015 µg/mL (≈ 0.0162 µM)

CO[C@H]1/C=C/O[C@@]2(C)Oc3c(C)c(O)c4c(=O)c(c5oc6cc(N7CCC(C)(N(C)C)CC7)cc(O)c6nc-5c4c3C2=O)NC(=O)/C(C)=C\C=C\[C@H](C)[C@H](O)[C@@H](C)[C@@H](O)[C@@H](C)[C@H](OC(C)=O)[C@@H]1C [Compound 71, 3′-hydroxy-5′-[4-methyl-4-N,N-dimethylamino-1-piperidinyl]benzoxazinorifamycin]
MIC (μg/mL) E. faecalis (E. faecalis): 0.25 µg/mL (≈ 0.266 µM)
MIC (μg/mL) H. flu (H. flu): 0.5 µg/mL (≈ 0.531 µM)
MIC (μg/mL) S. pneumo. (S. pneumo.): 0.00012 µg/mL (≈ 0.000128 µM)
MIC (μg/mL) E. coli (E. coli): 4 µg/mL (≈ 4.25 µM)
MIC (μg/mL) S. aureus (S. aureus): 0.008 µg/mL (≈ 0.0085 µM)

CO[C@H]1/C=C/O[C@@]2(C)Oc3c(C)c(O)c4c(=O)c(c5oc6cc(N7CCC(C)(NC(C)=O)CC7)cc(O)c6nc-5c4c3C2=O)NC(=O)/C(C)=C\C=C\[C@H](C)[C@H](O)[C@@H](C)[C@@H](O)[C@@H](C)[C@H](OC(C)=O)[C@@H]1C [Compound 72, 3′-hydroxy-5′-[4-methyl-4-acetylamino-1-piperidinyl]benzoxazinorifamycin]
MIC (μg/mL) E. faecalis (E. faecalis): 2 µg/mL (≈ 2.09 µM)
MIC (μg/mL) H. flu (H. flu): 0.5 µg/mL (≈ 0.524 µM)
MIC (μg/mL) S. pneumo. (S. pneumo.): 0.00025 µg/mL (≈ 0.000262 µM)
MIC (μg/mL) E. coli (E. coli): >8 µg/mL
MIC (μg/mL) S. aureus (S. aureus): 0.008 µg/mL (≈ 0.00838 µM)

CO[C@H]1/C=C/O[C@@]2(C)Oc3c(C)c(O)c4c(=O)c(c5oc6cc(N7CCC(C)(N(C)C)CC7)cc(O)c6nc-5c4c3C2=O)NC(=O)/C(C)=C\C=C\[C@H](C)[C@H](O)[C@@H](C)[C@@H](O)[C@@H](C)[C@H](O)[C@@H]1C [Compound 73, 25-O-deacetyl-3′-hydroxy-5′-[4-methyl-4-N,N-dimethylamino-1-piperidinyl]benzoxazinorifamycin]
MIC (μg/mL) E. faecalis (E. faecalis): 0.03 µg/mL (≈ 0.0334 µM)
MIC (μg/mL) H. flu (H. flu): 0.12 µg/mL (≈ 0.133 µM)
MIC (μg/mL) S. pneumo. (S. pneumo.): 0.00025 µg/mL (≈ 0.000278 µM)
MIC (μg/mL) E. coli (E. coli): 2 µg/mL (≈ 2.22 µM)
MIC (μg/mL) S. aureus (S. aureus): 0.002 µg/mL (≈ 0.00222 µM)

CO[C@H]1/C=C/O[C@@]2(C)Oc3c(C)c(O)c4c(=O)c(c5oc6cc(N7CC[C@@H](N(C)C)C7)cc(O)c6nc-5c4c3C2=O)NC(=O)/C(C)=C\C=C\[C@H](C)[C@H](O)[C@@H](C)[C@@H](O)[C@@H](C)[C@H](OC(C)=O)[C@@H]1C [Compound 75, 3′-hydroxy-5′-[(3R)-N,N-dimethylamino-1-pyrrolidinyl]benzoxazinorifamycin]
MIC (μg/mL) E. faecalis (E. faecalis): 0.12 µg/mL (≈ 0.131 µM)
MIC (μg/mL) H. flu (H. flu): 0.25 µg/mL (≈ 0.274 µM)
MIC (μg/mL) S. pneumo. (S. pneumo.): 0.00012 µg/mL (≈ 0.000131 µM)
MIC (μg/mL) E. coli (E. coli): 4 µg/mL (≈ 4.38 µM)
MIC (μg/mL) S. aureus (S. aureus): 0.002 µg/mL (≈ 0.00219 µM)

CO[C@H]1/C=C/O[C@@]2(C)Oc3c(C)c(O)c4c(=O)c(c5sc6cc(N7CCN8CCC[C@H]8C7)ccc6nc-5c4c3C2=O)NC(=O)/C(C)=C\C=C\[C@H](C)[C@H](O)[C@@H](C)[C@@H](O)[C@@H](C)[C@H](OC(C)=O)[C@@H]1C [Compound 76, 5′-[(8aS)octahydropyrrolo[1,2-a]pyrazin-2-yl]benzthiazinorifamycin]
MIC (μg/mL) E. faecalis (E. faecalis): 0.5 µg/mL (≈ 0.54 µM)
MIC (μg/mL) H. flu (H. flu): 0.25 µg/mL (≈ 0.27 µM)
MIC (μg/mL) S. pneumo. (S. pneumo.): 0.00025 µg/mL (≈ 0.00027 µM)
MIC (μg/mL) E. coli (E. coli): 4 µg/mL (≈ 4.32 µM)
MIC (μg/mL) S. aureus (S. aureus): 0.008 µg/mL (≈ 0.00865 µM)
